Test results: patent US10441608B2, “Continuous methods for treating liquids and manufacturing certain constituents (e.g., nanoparticles) in liquids, apparatuses and nanoparticles and nanoparticle/liquid solution(s) resulting therefrom” (Clene Nanomedicine, Inc., priority 2009, dated 2019)
Several values for one entry are separate records, joined by “and”; a condition that tells them apart may be missing. Equal entries are not always repeated. Where two headings read alike, the source gives them in different places.

Tests used:
Format in all cases: cell-based
a variety of fungi = test: Broth microdilution MIC/MID 50 against fungi; settings: antifungal concentration
Experimental: The clinical and laboratory standards institute Broth Microdilution Methodology was employed, however, the growth medium used was an “RPMI” medium. Table 22c uses a format similar to that used for Table 22a, however, the test solutions were tested against a variety of fungi.

[1] = test system: Trypanosoma b. rhodesiense STIB 900; test: Alamar Blue assay against Human African Trypanosomiasis parasites
Experimental: Minimum Essential Medium (50 μl) supplemented according to Baltz et al. (1985) with 2-mercaptoethanol and 15% heat-inactivated horse serum was added to each well of a 96-well microtiter plate.
Serial drug dilutions were prepared covering a range from 90 to 0.123 μg/ml.
Then 10^4 bloodstream forms of Trypanosoma b. rhodesiense STIB 900 in 50 μl were added to each well and the plate incubated at 37° C. under a 5% CO2 atmosphere for 72 hours.
10 μl of Alamar Blue (12.5 mg resazurin dissolved in 100 mL distilled water) were then added to each well and incubation continued for a further 2-4 hours.
Then the plates were read with a Spectramax Gemini XS microplate fluorometer (Molecular Devices Cooperation, Sunnyvale, Calif., USA) using an excitation wave length of 536 nm and an emission wave length of 588 nm.
Data were analysed using the software Softmax Pro (Molecular Devices Cooperation, Sunnyvale, Calif., USA). Decrease of fluorescence (=inhibition) was expressed as percentage of the fluorescence of control cultures and plotted against the drug concentrations.
From the sigmoidal inhibition curves the IC50 values were calculated.

[2] = test system: Gram-Positive and Gram Negative bacteria

C[C@@H]1[C@H](O)[C@@H](C)/C=C/C=C/C=C/C=C/C=C/C=C/C=C/[C@H](O[C@@H]2O[C@H](C)[C@@H](O)[C@H](N)[C@@H]2O)C[C@@H]2O[C@](O)(C[C@@H](O)C[C@@H](O)[C@H](O)CC[C@@H](O)C[C@@H](O)CC(=O)O[C@H]1C)C[C@H](O)[C@H]2C(=O)O [Amphotericin B]
MID/MIC (a variety of fungi; ATCC 22019 Candida parapsilosis - 24 hrs): 0.5 mg/L | MID/MIC (a variety of fungi; ATCC 22019 Candida parapsilosis - 48 hrs §§ (24 hour read)): 1 mg/L | MID/MIC (a variety of fungi; NCPF 118 Trichophyton rubrum 48 hrs §§ (24 hour read)): 0.5 mg/L and 1 mg/L | MID/MIC (a variety of fungi; NCPF 175 Trychophyton interdigitale 72 hrs §§ (24 hour read)): 2 mg/L | MID/MIC (a variety of fungi; NCPF 177 *Microsporum canis - 72 hrs }} (required 72 hours incubation)): 0.12 mg/L | MID/MIC (a variety of fungi; NCPF 224 Trichophyton mentagrophytes - 48 hrs §§ (24 hour read)): 2 mg/L | MID/MIC (a variety of fungi; NCPF 436 *Microsporum audounii - 72 hrs }} (required 72 hours incubation)): 0.5 mg/L | MID/MIC (a variety of fungi; NCPF 988 *Microsporum ferrugineum - 72 hrs }} (required 72 hours incubation)): 1 mg/L | MID/MIC (a variety of fungi; NCPF 2140 Aspergiflus fumigatus - 48 hrs §§ (24 hour read)): 2 mg/L | MID/MIC (a variety of fungi; NCPF 2175 Aspergillus flavus - 48 hrs §§ (24 hour read)): 4 mg/L | MID/MIC (a variety of fungi; NCPF 2634 Rhizopus oligosporus - 24 hrs): 0.5 mg/L | MID/MIC (a variety of fungi; NCPF 2715 Penicillium chrysogenum 48 hrs §§ (24 hour read)): 2 mg/L | MID/MIC (a variety of fungi; NCPF 2722 Fusarium oxysporum - 48 hrs): 1 mg/L | MID/MIC (a variety of fungi; NCPF 2743 Mucor circinelloides - 48 hrs): 1 mg/L | MID/MIC (a variety of fungi; NCPF 3309 Candida glabrata - 24 hrs): 0.5 mg/L | MID/MIC (a variety of fungi; NCPF 3309 Candida glabrata - 48 hrs): 1 mg/L | MID/MIC (a variety of fungi; NCPF 3516 Candida lusitaniae - 24 hrs): 0.5 mg/L | MID/MIC (a variety of fungi; NCPF 3516 Candida lusitaniae - 48 hrs §§ (24 hour read)): 1 mg/L | MID/MIC (a variety of fungi; NCPF 3853 Trichophyton cutaneum 48 hrs §§ (24 hour read)): 0.5 mg/L | MID/MIC (a variety of fungi; NCPF 5011 Epidermophyton floccosum - 48 hrs): 0.25 mg/L | MID/MIC (a variety of fungi; NCPF 7075 *Sporothrix schenkii - 72 hrs (required 72 hours incubation)): 1 mg/L | MID/MIC (a variety of fungi; NCPF 7147 Alternaria altemata - 48 hrs §§ (24 hour read)): 1 mg/L | MID/MIC (a variety of fungi; NIH 2624 Aspergillus terreus - 48 hrs §§ (24 hour read)): 2 mg/L

Nc1nc(N)nc(Nc2ccc([As]3SCC(CO)S3)cc2)n1 (stereo not shown) [Melarsoprol]
IC50 ([1]; 72 h, read-out: T.b. rhod. IC/50 Trial I): 3 ng/mL | IC50 ([1]; 72 h, read-out: T.b. rhod. IC/50 Trial III): 2 ng/mL | IC50 ([1]; 72 h, read-out: T.b. rhod. IC/50 Trial V): 5 ng/mL | IC50 ([1]; read-out: T.b. rhod. IC/50 Avg less 1 ng/ml): 3.33 ng/mL

CCC[C@@H]1C[C@@H](C(=O)N[C@@H]([C@H]2O[C@H](SC)[C@H](O)[C@@H](O)[C@H]2O)[C@H](C)Cl)N(C)C1 [Clindamycin]
MID/MIC (amount of antibiotic) [2]: ≤0.06 mg/L | MID/MIC (amount of antibiotic) ([2]; CD01 Clostridium difficile, Brucella broth with 5% LHB, 1 μg/mL Vit K, 1 μg/mL Haemin): 4 mg/L | MID/MIC (amount of antibiotic) ([2]; CD02 Clostridium difficile, Brucella broth with 5% LHB, 1 μg/mL Vit K, 1 μg/mL Haemin): 2 mg/L | MID/MIC (amount of antibiotic) ([2]; CD03 Clostridium difficile, Brucella broth with 5% LHB, 1 μg/mL Vit K, 1 μg/mL Haemin): 2 mg/L and 1 mg/L | MID/MIC (amount of antibiotic) ([2]; CD04 Clostridium difficile, Brucella broth with 5% LHB, 1 μg/mL Vit K, 1 μg/mL Haemin): 1 mg/L | MID/MIC (amount of antibiotic) ([2]; CD05 Clostridium difficile, Brucella broth with 5% LHB, 1 μg/mL Vit K, 1 μg/mL Haemin): 1 mg/L | MID/MIC (amount of antibiotic) ([2]; CD06 Clostridium difficile, Brucella broth with 5% LHB, 1 μg/mL Vit K, 1 μg/mL Haemin): 1 mg/L | MID/MIC (amount of antibiotic) ([2]; CD07 Clostridium difficile, Brucella broth with 5% LHB, 1 μg/mL Vit K, 1 μg/mL Haemin): 1 mg/L | MID/MIC (amount of antibiotic) ([2]; CD08 Clostridium difficile, Brucella broth with 5% LHB, 1 μg/mL Vit K, 1 μg/mL Haemin): 0.5 mg/L and 1 mg/L | MID/MIC (amount of antibiotic) ([2]; CD09 Clostridium difficile, Brucella broth with 5% LHB, 1 μg/mL Vit K, 1 μg/mL Haemin): 1 mg/L and 2 mg/L | MID/MIC (amount of antibiotic) ([2]; GN10 Pseudomonas aeruginosa ATCC27853, antibiotic-susceptible type strain): 1 mg/L | MID/MIC (amount of antibiotic) ([2]; GN32 Acinetobacter baumanii, multi-drug resistant clinical isolate): 50.06 mg/L | MID/MIC (amount of antibiotic) ([2]; P8119035 Citrobacter freundii, resistant clinical isolate): 4 mg/L
